ChEMBL document CHEMBL1201862, “PubChem BioAssay data set” (2004)
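Exposure lasted 48 hours, with cells grown in 96-well plates and compounds tested at five concentrations. The concentration for 50% growth inhibition is given as GI50.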 Active and inactive are the calls of the source. Rule as the data show it: active = GI50 up to about 1.1 µM and inactive = higher.

Assays:
Test in all cases: NCI-60 cell line screen, 48 h
DMS-273 = system: DMS-273
OVCAR-4 = system: OVCAR-4
OVCAR-3 = system: OVCAR-3
COLO 205 = system: COLO 205
HCT-116 = system: HCT-116
UACC-257 = system: UACC-257
SF-268 = system: SF-268
SNB-78 = system: SNB-78
M19-MEL = system: M19-MEL
NCI-H522 = system: NCI-H522
TK-10 = system: TK-10
IGROV-1 = system: IGROV-1
KM-20L2 = system: KM-20L2
HT-29 = system: HT-29
RXF 393 = system: RXF 393
SNB-19 = system: SNB-19
SF-295 = system: SF-295
M14 = system: M14
SF-539 = system: SF-539
NCI-H226 = system: NCI-H226
LOX IMVI = system: LOX IMVI
OVCAR-8 = system: OVCAR-8
SK-MEL-28 = system: SK-MEL-28
CAKI-1 = system: CAKI-1
UACC-62 = system: UACC-62
UO-31 = system: UO-31
A498 = system: A498
NCI-H460 = system: NCI-H460
EKVX = system: EKVX
DLD-1 = system: DLD-1
RPMI-8226 = system: RPMI-8226
DMS-114 = system: DMS-114
KM12 = system: KM12
SN12C = system: SN12C
LXFL 529 = system: LXFL 529
MOLT-4 = system: MOLT-4
ACHN = system: ACHN
HCC 2998 = system: HCC 2998
RXF 631 = system: RXF 631
XF498 = system: XF498
Malme-3M = system: Malme-3M
K562 = system: K562
HOP-62 = system: HOP-62
HCT-15 = system: HCT-15
CCRF-CEM = system: CCRF-CEM
SK-MEL-2 = system: SK-MEL-2
SK-OV-3 = system: SK-OV-3
NCI-H23 = system: NCI-H23
A549 = system: A549
SK-MEL-5 = system: SK-MEL-5
786-0 = system: 786-0
OVCAR-5 = system: OVCAR-5
SNB-75 = system: SNB-75
HL-60 = system: HL-60
HOP-92 = system: HOP-92
SW-620 = system: SW-620
U-251 = system: U-251
HOP-18 = system: HOP-18

## N=c1oc2cc(O)c(O)cc2cc1C(N)=O
DMS-273
  GI50: > 100 µM (inactive)
OVCAR-4
  GI50: > 100 µM (inactive)
OVCAR-3
  GI50: > 100 µM (inactive)
COLO 205
  GI50: > 100 µM (inactive)
HCT-116
  GI50: > 100 µM (inactive)
UACC-257
  GI50: > 100 µM (inactive)
SF-268
  GI50: 81.3 µM (inactive)
SNB-78
  GI50: > 100 µM (inactive)
M19-MEL
  GI50: > 100 µM (inactive)
NCI-H522
  GI50: 45.1 µM (inactive)
TK-10
  GI50: > 100 µM (inactive)
IGROV-1
  GI50: > 100 µM (inactive)
KM-20L2
  GI50: > 100 µM (inactive)
HT-29
  GI50: > 100 µM (inactive)
RXF 393
  GI50: > 100 µM (inactive)
SNB-19
  GI50: > 100 µM (inactive)
SF-295
  GI50: > 100 µM (inactive)
M14
  GI50: > 100 µM (inactive)
SF-539
  GI50: > 100 µM (inactive)
NCI-H226
  GI50: > 100 µM (inactive)
LOX IMVI
  GI50: > 100 µM (inactive)
OVCAR-8
  GI50: > 100 µM (inactive)
SK-MEL-28
  GI50: > 100 µM (inactive)
CAKI-1
  GI50: > 100 µM (inactive)
UACC-62
  GI50: > 100 µM (inactive)
UO-31
  GI50: > 100 µM (inactive)
A498
  GI50: > 100 µM (inactive)
NCI-H460
  GI50: > 100 µM (inactive)
EKVX
  GI50: > 100 µM (inactive)
DLD-1
  GI50: > 100 µM (inactive)
RPMI-8226
  GI50: > 100 µM (inactive)
DMS-114
  GI50: > 100 µM (inactive)
KM12
  GI50: > 100 µM (inactive)
SN12C
  GI50: > 100 µM (inactive)
LXFL 529
  GI50: > 100 µM (inactive)
MOLT-4
  GI50: 84.9 µM (inactive)
ACHN
  GI50: > 100 µM (inactive)
HCC 2998
  GI50: > 100 µM (inactive)
RXF 631
  GI50: > 100 µM (inactive)
XF498
  GI50: > 100 µM (inactive)
Malme-3M
  GI50: > 100 µM (inactive)
K562
  GI50: > 100 µM (inactive)
HOP-62
  GI50: > 100 µM (inactive)
HCT-15
  GI50: > 100 µM
CCRF-CEM
  GI50: 33 µM (inactive)
SK-MEL-2
  GI50: > 100 µM (inactive)
SK-OV-3
  GI50: > 100 µM (inactive)
NCI-H23
  GI50: > 100 µM (inactive)
A549
  GI50: > 100 µM (inactive)
SK-MEL-5
  GI50: > 100 µM (inactive)
786-0
  GI50: 43.5 µM (inactive)
OVCAR-5
  GI50: > 100 µM (inactive)
SNB-75
  GI50: 25 µM (inactive)
HL-60
  GI50: > 10 µM (inactive)
HOP-92
  GI50: > 100 µM (inactive)
SW-620
  GI50: > 100 µM (inactive)
U-251
  GI50: > 100 µM (inactive)

## NC(CCc1ncc(C(=O)O)s1)C(=O)O (stereo unspecified)
OVCAR-3
  GI50: > 100 µM (inactive)
COLO 205
  GI50: > 100 µM (inactive)
HCT-116
  GI50: > 100 µM (inactive)
UACC-257
  GI50: > 100 µM (inactive)
SNB-78
  GI50: > 100 µM (inactive)
M19-MEL
  GI50: > 100 µM (inactive)
NCI-H522
  GI50: > 100 µM (inactive)
TK-10
  GI50: > 100 µM (inactive)
IGROV-1
  GI50: > 100 µM (inactive)
HT-29
  GI50: > 100 µM (inactive)
RXF 393
  GI50: > 100 µM (inactive)
SNB-19
  GI50: > 10 µM (inactive)
SF-295
  GI50: > 100 µM (inactive)
M14
  GI50: > 100 µM (inactive)
SF-539
  GI50: > 100 µM (inactive)
NCI-H226
  GI50: > 100 µM (inactive)
LOX IMVI
  GI50: > 100 µM (inactive)
OVCAR-8
  GI50: > 100 µM (inactive)
SK-MEL-28
  GI50: > 100 µM (inactive)
CAKI-1
  GI50: > 100 µM (inactive)
UACC-62
  GI50: > 100 µM (inactive)
UO-31
  GI50: > 100 µM (inactive)
A498
  GI50: > 100 µM (inactive)
NCI-H460
  GI50: > 100 µM (inactive)
EKVX
  GI50: > 100 µM (inactive)
DLD-1
  GI50: > 100 µM (inactive)
RPMI-8226
  GI50: > 100 µM (inactive)
DMS-114
  GI50: > 100 µM (inactive)
KM12
  GI50: > 100 µM (inactive)
SN12C
  GI50: > 100 µM (inactive)
LXFL 529
  GI50: > 100 µM (inactive)
MOLT-4
  GI50: > 100 µM (inactive)
ACHN
  GI50: > 100 µM (inactive)
HCC 2998
  GI50: > 100 µM (inactive)
RXF 631
  GI50: > 100 µM (inactive)
Malme-3M
  GI50: > 100 µM (inactive)
K562
  GI50: > 100 µM (inactive)
HCT-15
  GI50: > 100 µM
CCRF-CEM
  GI50: > 100 µM (inactive)
SK-OV-3
  GI50: > 100 µM (inactive)
NCI-H23
  GI50: > 100 µM (inactive)
A549
  GI50: > 100 µM (inactive)
SK-MEL-5
  GI50: > 100 µM (inactive)
786-0
  GI50: > 100 µM (inactive)
SNB-75
  GI50: > 100 µM (inactive)
HOP-18
  GI50: > 100 µM (inactive)
HOP-92
  GI50: > 100 µM (inactive)
SW-620
  GI50: > 100 µM (inactive)
U-251
  GI50: > 100 µM (inactive)
